Test results taken from patent US10955413B2, “Method for measuring zygomycota and reagent kit for measuring zygomycota” (SEIKAGAKU CORPORATION, priority 2015, dated 2021).

Tested on: anti-chitosan polyclonal antibody (CTSpAb)
Experiment: Competitive ELISA with 3-mer to 6-mer CTS oligosaccharide as competitive substance
Assay type: binding, fowl
Settings: CTSpAb diluted 8,000-fold
Description: The Molecular Size of CTS which can be assayed by CTSpAb was determined through a competitive ELISA employing a 3-mer to 6-mer CTS oligosaccharide (product of Seikagaku Corporation) as a competitive substance.
To CTS, 1% (v/v) acetic acid was added so as to adjust the concentration to 2 μg/mL. The thus-prepared solution was added to a plate at 50 μL/well, and the plate was allowed to stand overnight at 4° C. The plate was washed twice with 9.57 mM PBS (pH: 7.5) at 300 μL/well, and then 25% BA/9.57 mM PBS (pH: 7.5) was added thereto at 200 μL/well. The plate was allowed to stand for 1 hour, to thereby fabricate CTS-immobilized plate. The plate was washed repeatedly four times with PBS-T at 300 μL/well. To the plate, a solution prepared by adding 10% BA/PBS-T to the CTS oligosaccharide so as to adjust the concentration to 0.00064 to 10 μg/mL, or 10% BA/PBS-T (CTS oligosaccharide-free) was added to the plate at 100 μL/well. Then, CTSpAb diluted 8,000-fold with 10% BA/PBS-T was added to the plate at 100 μL/well, and the plate was allowed to stand for 1 hour. The plate was washed repeatedly four times with PBS-T at 300 μL/well. Subsequently, a product of peroxidase-labeled anti-fowl IgY (IgG) (H+L) antibody 5,000-fold diluted with 10% BA/PBS-T was added to the plate at 100 μL/well, and the plate was allowed to stand for 1 hour. The plate was washed repeatedly four times with PBS-T at 300 μL/well, and then, TMB reagent was added to the plate at 100 μL/well, and the plate was allowed to stand for 30 minutes. Then, 1 N HCl was added to the plate at 100 μL/well. The absorbance of each well of the plate was measured by means of a well reader MP-96 at a measurement wavelength of 450 nm and a reference wavelength of 630 nm.
As is clear from Table 3, binding of CTSpAb to CTS on the plate was inhibited by 3- to 6-mer CTS oligosaccharide.

[1] = CTS oligosaccharide 0.00064 μg/mL
[2] = CTS oligosaccharide 0.0032 μg/mL
[3] = CTS oligosaccharide 0.016 μg/mL

Row | SMILES | % Inhibition [1] [%] | % Inhibition [2] [%] | % Inhibition [3] [%] | % Inhibition (CTS oligosaccharide 0.08 μg/mL) [%] | % Inhibition (CTS oligosaccharide 0.4 μg/mL) [%] | % Inhibition (CTS oligosaccharide 2 μg/mL) [%] | % Inhibition (CTS oligosaccharide 10 μg/mL) [%]
1 | N[C@H]1[C@H](O[C@H]2[C@H](O)[C@@H](N)[C@H](O[C@H]3[C@H](O)[C@@H](N)C(O)O[C@@H]3CO)O[C@@H]2CO)O[C@H](CO)[C@@H](O)[C@@H]1O (stereo partly drawn) [3-mer] | 6 | 9 | 11 | 16 | 24 | 32 | 44
2 | N[C@H]1[C@H](O[C@H]2[C@H](O)[C@@H](N)[C@H](O[C@H]3[C@H](O)[C@@H](N)[C@H](O[C@H]4[C@H](O)[C@@H](N)[C@H](O[C@H]5[C@H](O)[C@@H](N)C(O)O[C@@H]5CO)O[C@@H]4CO)O[C@@H]3CO)O[C@@H]2CO)O[C@H](CO)[C@@H](O)[C@@H]1O (stereo partly drawn) [5-mer] | 28 | 42 | 55 | 65 | 69 | 70 | 70
3 | N[C@H]1[C@H](O[C@H]2[C@H](O)[C@@H](N)[C@H](O[C@H]3[C@H](O)[C@@H](N)[C@H](O[C@H]4[C@H](O)[C@@H](N)[C@H](O[C@H]5[C@H](O)[C@@H](N)[C@H](O[C@H]6[C@H](O)[C@@H](N)C(O)O[C@@H]6CO)O[C@@H]5CO)O[C@@H]4CO)O[C@@H]3CO)O[C@@H]2CO)O[C@H](CO)[C@@H](O)[C@@H]1O (stereo partly drawn) [6-mer, chitosan hexamer] | 25 | 39 | 51 | 63 | 66 | 68 | 68
